The text below walks through data of publication PMC11719499 (International Journal of Molecular Sciences, 2024).

“Also recorded” adds a separate entry of the source.

The conditions of series [1]: for Prediction of penetration to the CNS: class from logPe in PAMPA-BBB; for BBB permeability (in words): PAMPA-BBB.
Procedure: We used the parallel artificial membrane permeability assay for BBB (PAMPA-BBB) to determine the brain permeability of compounds 1 and 12 [22]. The compounds 1 and 12 were prepared with methyl alcohol at the concentration of 4 mg/mL. These were diluted with PBS (Phosphate Buffer Saline; pH = 7.4) to obtain the donor solutions 100 μg/mL PAMPA “sandwich”, consisting of a donor 96-well microliter plate and matching filter plate coated with 5 μL of 2% lecithin/dodecane. Compounds 1 and 12 were added to the wells (150 μL/well) of the pre-coated filter, and PBS was added to the wells (300 μL/well) of the receiver plate. The filter plate was coupled with the receiver plate, and the plate couple was incubated in the thermostat at 37 °C for 16 h. After incubation, the plates were separated, and the samples from each well of both the filter plate and the receiver plate were sucked out and analyzed by HPLC.
In series [2] the test system is HM mCherry-GFP-LC3 cells. Briefly: Autophagic flux assay by flow cytometry in HM mCherry-GFP-LC3 cells. It is filed as cell-based, human. The following applies: compounds at 10 µM and 40 µM, 24 h, compared to control. Here is the method:
Consequently, the autolysosomes manifest red fluorescence. Consequently, the red fluorescence observed in the cells can be used as a marker for the formation of autolysosomes. The extent of red fluorescence can be used as an indicator of the efficiency of the flux from the autophagosome to the autolysosome. The bioactivity of all compounds on autophagic flux was evaluated using HM mCherry-GFP-LC3 cells by flow cytometry. In summary, the HM mCherryGFP-LC3 cells were cultured in 12-well plates for 24 h in DMEM (Dulbecco’s modified Eagle medium) supplemented with 10% fetal bovine serum (Gibco-BRL, 10099–141, Gaithersburg, MD, USA) in a 37 ◦C incubator with 5% CO2 at 95% humidity. Subsequently, the compounds were introduced directly to the culture medium, resulting in final concentrations of 10 µM and 40 µM. Rapamycin was used as a positive control. Twenty-four hours following the administration of the treatment, the cells were harvested and fixed using 4% paraformaldehyde (PFA). […] The data were analyzed using the FlowJo software v10 (BD Biosciences, Franklin Lakes, NJ, USA).
Data analyses were carried out by using GraphPad Prism 8 (GraphPad Software, Inc., La Jolla, CA, USA). The one-way ANOVA (analysis of variance) was performed using Dunnett’s post hoc test for comparison between the treated group and control group, and the values were expressed as mean ± standard deviation (SD). […]

With `CC(C)NCC(O)COc1cccc2ccccc12` (centres unmarked) [Propranolol, propranolol, reference compound], in series [1], the “Prediction of penetration to the CNS” value is on record as “CNS ++ (++ is logPe > −5.0)”.
Regarding `C=C1C(OC(=O)C(C)C)C(O)C(OC(=O)c2ccccc2)C(C)(C)C=CC(C)C(OC(C)=O)C2(O)CC(C)(OC(C)=O)C(OC(=O)c3ccccc3)C2C1OC(C)=O` (centres unmarked) [Compound 1, Euphjatrophane H], the “bioactivity towards autophagic flux” value in series [2] was “most promising activity; also recorded: significant activity on autophagic flux”. For the same molecule, in series [1], the “BBB permeability (in words)” value is “relatively high BBB permeability; also recorded: ability to penetrate the blood–brain barrier (BBB)” and the “Prediction of penetration to the CNS” value was “CNS ++ (++ is logPe > −5.0)”.
On to `NC(=O)N1c2ccccc2C=Cc2ccccc21` [Carbamazepine, carbamazepine, reference compound], for which, in series [1], the “Prediction of penetration to the CNS” value is “CNS ++ (++ is logPe > −5.0)”.
As to `C=C1[C@H](OC(=O)/C(C)=C/C)[C@@H](OC(C)=O)[C@@H](OC(C)=O)C(C)(C)/C=C/[C@H](C)[C@@H](OC(C)=O)[C@@]2(O)C[C@@](C)(OC(C)=O)[C@H](OC(=O)c3ccccc3)[C@@H]2[C@H]1OC(C)=O` [Compound 12, euphpepluone F], in series [2], the “bioactivity towards autophagic flux” value is “most promising activity; also recorded: significant activity on autophagic flux”. In series [1], the “BBB permeability (in words)” value is on record as “relatively high BBB permeability; also recorded: ability to penetrate the blood–brain barrier (BBB)” and the “Prediction of penetration to the CNS” value is recorded as “CNS + (+ is logPe > −6.0)”.
